For experiment [1], the system named is excised aortic segment (Ca++ induced vascular smooth muscle contraction). In words: Assay F: Calcium Antagonist Effects. The settings on record: K+ (100 mM) depolarized aortic segment, 1 hr incubation with test compound at 10^-6M. Here is the method: Assay F: Calcium Antagonist Effects
An excised aortic segment was mounted in a tissue bath containing modified Krebs solution. After depolarization of the tissue with K^+ (100 mM), Ca^++, in cumulative concentrations of 10^−3M, 3.2×10^−3M and 10^−2M, was injected into the bath to produce vascular smooth muscle contraction. The developed tension (g) was measured and control dose-response values are obtained. After 1 hr incubation with a test compound at 10^−6M concentration, the same doses of Ca^++ are repeated. The log dose-response curves of control and after treatment were analyzed by linear regression.

Experiment [2] deals with PHA stimulated human donor peripheral blood mononuclear cells (PMNC). Kind of experiment: Assay B: Suppression of Human Mitogen Stimulation. The format is cell-based. The settings on record: inhibition of PHA stimulated proliferation of human PMNC, 96 hrs, 3H-thymidine. Here is the method: Assay B: Suppression of Human Mitogen Stimulation Assay
Normal human donor peripheral blood mononuclear cells (PMNC) were isolated by density centrifugation using Ficoll-Paque(Pharacia LKB, Uppsala Sweden, 350 RCF 45 minutes). Cells were washed and incubated at 37° C. in 95%air/5% CO2 atmosphere in 96 well microtiter plates (2×10^5 cells/well) for 96hrs with RPMI 1640 medium containing 5% fetal bovine serum and 2-mercaptoethanol ([…]), Phytohemagglutinin (Difco, Detroit, MI 10 μg/ml) in the presence or absence of test compounds. Inhibition of PHA stimulated proliferation was measured by reduced incorporation of ^3H-thymidine (0.5 μCi/well, added during the last 24 hours of the assay). When possible, the IC50 values for active immunosuppressant compounds were calculated by four parameter logistic regression analysis of the results [Delean et al, DE ].

Experiment [3] concerns human peripheral blood mononuclear cells (PMNC) cocultured with mitomycin-C inactivated Raji stimulator cell line. In words: Assay C: One-Way Mixed Lymphocyte Reaction (Human). The format is cell-based. The following applies: one-way MLR, human PMNC vs Raji, 120 hours, 3H-thymidine. From the text:
Assay C: One-Way Mixed Lymphocyte Reaction (Human)
The mixed lymphocyte reaction (MLR) is an assay that measures T-cell blast cell transformation and mitosis which occurs when lymphocytes from different major and minor histocompatibility complex (MHC) haplotypes are cocultured. This response is considered a “one-way MLR” when stimulator cells are made unresponsive by inhibition of DNA synthesis (treatment with mitomycin-C or gamma-irradiation) prior to coculture with responder cells. This assay can be used as an indicator of the cellular immunomodulation mechanisms involved in transplant rejection. In this assay, human peripheral blood mononuclear cells(PMNC) were used as the responder cell population and were isolated from normal donor blood as follows: Blood samples were collected in LeucoPREP™ tubes (Becton Dickinson, Lincoln Park, N.J.) and the mononuclear cell preparation was obtained by following the manufacturers procedures. Isolated mononuclear cells were co-incubated at 6×10^4 cells/well with a stimulator cell line at 2×10^4 cells/well in RPMI 1640 medium containing 5% fetal bovine serum and 2-mercaptoethanol (40 μM). The stimulator cell line, Raji, which was derived from a human Burkitt lymphoma (American Type Culture Collection, Rockville Md.) was previously inactivated by mitomycin-C treatment (Sigma, St. Louis Mo., 25 μg/ml, 370 for 30 minutes). After repeated washings of mitomycin-C from the stimulator cell line, cocultures were incubated in 96 well microtiter plates at 37° C., in 95% air/5% CO2 atmosphere for 120 hours in the presence or absence of test compounds (0.1-25 μM). Inhibition of proliferation was measured by reduced incorporation of ^3H-thymidine (0.5 μCi/well, added during the last 24 hours of the assay). The IC50 values for the immunosuppressant compounds were calculated by four parameter logistic regression analysis of the results [Delean et al, Id.]

Experiment [4] relates to ConA-stimulated spleen cells from female Balb/c mice. Kind of experiment: Assay A: Suppression of Mitogen-Stimulated Proliferation (Murine). The settings on record: inhibition of ConA-stimulated proliferation of murine spleen cells, 5 days, MTT. It counts as cell-based, mouse. The text has this:
Assay A: Suppression of Mitogen-Stimulated Proliferation (Murine)
It is known that lymphocyte activation can be polyclonally stimulated by plant lectins and other mitogens that induce blast transformation and mitosis. Certain mitogens like Concanavalin A (ConA), preferentially activate T-lymphocytes. Exposure to ConA results in polyclonal activation of T-cells and can be used as an in vitro index for general immunomodulation of pan T-cell activity. In this assay spleen cells harvested from female Balb/c mice were incubated at 37° C., in 95% air/5% CO2 atmosphere in 96 well microtiter plates (10^5 cells/well) for 5 days with Iscove's modified Dulbecco's medium [25 mM HEPES 2 mM L-glutamine, 5% fetal bovine serum and 2-mercaptoethanol (40 μM)] (100 μl/well), concanavalin A (ConA) alone (Sigma, St. Louis, Mo.; 1.0 μg/ml) or ConA in the presence of test compounds (0.001-25 μM). Inhibition of ConA-stimulated proliferation was measured by calorimetric indicator of growth and proliferation, MTT (3-(4,5-dimethylthiazol-2-yl)-2 diphenyl tetrazolium bromide; (100 μl/well, 1 mg/ml) Sigma) [Mosmann, T., J. of Immunological Methods, 65, 55-63, […]]. After four hours, plates were centrifuged (1200 rpm) media supernatants aspirated and dye loaded cells were solubilized in isopropanol (150 μl/well). The absorbance was measured on an ELISA plate reader with a test wavelength of 570 nm and a reference of 630 nm. The IC50 values for active immunosuppressant compounds were calculated by four parameter logistic regression analysis of the results [Delean et al, Am. J. Physiol., 2, 397 (1978)].

The subject of experiment [5] is anesthetized spontaneously hypertensive rat. Kind of experiment: Assay H: Blood Pressure Reducing Effects. It counts as in vivo. The following applies: intragastrically at 10^-3M, readings 1, 2, 3 and 4 hours after administration. Here is the method:
Assay H: Blood Pressure Reducing Effects
Systemic blood pressure effects were assessed in vivo in an anesthetized spontaneously hypertensive rat. The test compound was administered intragastrically at 10^−[…]. Initial mean arterial blood pressure (MAP) was measured directly via a previously implanted arterial catheter immediately before administration of the compound. Blood pressure readings were made 1, 2, 3, and 4 hours after administration of the test compound.

The next experiment has as its system Human mononuclear cells. Kind of experiment: Assay D: Calcium Flux Assay (human mononuclear cells). The settings on record: at 2×, 5× and 10× the IC50 values of Assay A. The format is cell-based. The text has this:
Assay D: Calcium Flux Assay
One of the earliest requirements of lymphocyte activation involves the rapid mobilization of intracellular calcium and the sustained influx of extracellular calcium. These cellular responses to lymphocyte activators can be measured by calcium-binding fluorescent dyes such as Indo-1 [P. S. Rabinovitch, et al J. Immunol, 137, 952 (1986)]. The rapid and sustained changes in intracellular calcium can be used to discriminate classes of immunomodulatory compounds which alter early events in lymphocyte activation. Human mononuclear cells or the human Jurkat T-cell line (ATCC, Rockville Md.) were loaded with the calcium-sensitive dye, Indo-1 (5 μM), washed and incubated for 2-5 minutes in the presence or absence of test compounds. Calcium flux was initiated in lymphocytes by the binding of crosslinked antibody to the T cell receptor(αCD3 at 250 ng/ml followed by goat-anti-mouse IgG) or the lectin Phytohemagglutinin (PHA, 100 ug/ml). Jurkat cell activation was initiated by the addition of purified antibody to the T cell receptor (αCD3, 250 ng/ml). Subsequent changes in the concentration if intracellular calcium was monitored over time (6 min) by flow cytometry (Epics 753, Coulter Electronics, Hialeah Fla.) to determine modulation of the initial calcium-mediated activation of the cells [P. S. Rabinovitch, et al, E]. […]
Background: Calcium assays in cells follow changes in intracellular calcium, usually with a dye or a luminescent sensor.

Another experiment has as its system adult male SHR. In words: Assay G: Calcium Channel Blocker Effects (vascular resistance, microspheres). The settings on record: I.V. bolus of 1.0 mg/kg, Control (DMSO) 240. The format is in vivo, rat. Here is the method:
Assay G: Calcium Channel Blocker Effects
Under ether anesthesia, the jugular vein, femoral artery and left ventricle of adult male SHR were cannulated. After a 3-5 hour recovery period, animals ere treated with either test compound or placebo. Ten minutes was allowed for steady state conditions to be reached. Arterial pressure was then monitored via the femoral cannula. Immediately after this measurement, the reference blood sample was taken and radioactively-labeled microspheres were injected into the left ventricle. Rats were then sacrificed; organs were removed, weighed and counted. Cardiac output was computed. Percent cardiac output distribution per gram tissue, flow per gram tissue, and resistance times gram tissue were calculated fro the following organs: brain, heart, kidneys, splanchnic organs (liver plus pancreas, spleen and G. I. tract), skeletal muscle and skill. The tested compound was administered as an I.V. bolus of 1.0 mg/kg. Differences in mean values between treatment and control groups were analyzed by a one-way one variable analysis and least significant difference test.

Where a name gives a salt, the structure may show the parent alone.

For `COC(=O)c1cc(OC)c(OC)cc1CCN(C)CCCC(C#N)(c1ccc(OC)c(OC)c1)C(C)C` (stereo not shown) [Example 1, methyl 2-[2-[[4-cyano-4-(3,4-dimethoxyphenyl)-5-methylhexyl]methylamino]ethyl]-4,5-dimethoxybenzoate], the pA2 (commonly a measure of antagonist potency on a negative log scale) in experiment [1] is 6.81.
Turning to `COC(=O)c1cc(OC)c(OC)cc1CCN(C)CCCC(C#N)(c1ccc(OC)c(OC)c1)C(C)C` (stereo not shown) [Example 2, methyl 2-[2-[[4-cyano-4-(3,4-dimethoxyphenyl)-5-methylhexyl]methylamino]ethyl]-4,5-dimethoxybenzoate, 2-hydroxy-1,2,3-propanetricarboxylic acid salt], the half-maximal inhibitory concentration (IC50) (commonly the point on the concentration scale where inhibition reaches its midpoint) in experiment [2] (Homo sapiens, PBMC) was found to be 5.4 µM; in experiment [3], 4.3 µM; in experiment [4] (Mus musculus, 120 h), 7.1 µM.
Turning to `COC(=O)c1cc(OC)c(OC)cc1CCN(C)CCCC(C#N)(c1ccc(OC)c(OC)c1)C(C)C` (stereo not shown) [Example 3, methyl 2-[2-[[4-cyano-4-(3,4-dimethoxyphenyl)-5-methylhexyl]methylamino]ethyl]-4,5-dimethoxybenzoate, 2,3-dihydroxybutanedioic acid salt], the IC50 was 5.3 µM in experiment [2] and 8.7 µM in experiment [4].
On to `COc1ccc(C(C#N)(CCCN(C)CCc2cc(OC)c(OC)cc2C(=O)NC(C)(C)C)C(C)C)cc1OC` (stereo not shown) [Example 4, 2-[2-[[4-cyano-4-(3,4-dimethoxyphenyl)-5-methylhexyl]methylamino]ethyl]-N-(1,1-dimethylethyl)-4,5-dimethoxybenzamide, 2-hydroxy-1,2,3-propanetricarboxylic acid salt], for which the pA2 in experiment [1] stood at 6.56. The IC50 in experiment [2] (Homo sapiens, PBMC) worked out at 9.9 µM; in experiment [3] it was 8.9 µM; in experiment [4] (Mus musculus, 120 h), 13.3 µM. For the same compound, the “Decrease in MAP” value in experiment [5] was 18 mm Hg.
For `CCNC(=O)c1cc(OC)c(OC)cc1CCN(C)CCCC(C#N)(c1ccc(OC)c(OC)c1)C(C)C` (stereo not shown) [Example 5, 2-[2-[[4-cyano-4-(3,4-dimethoxyphenyl)-5-methylhexyl]methylamino]ethyl]-N-ethyl-4,5-dimethoxybenzamide, 2,3-dihydroxybutanedioic acid salt], the IC50 was > 25 µM in experiment [2] (Homo sapiens, PBMC); 20.2 µM in experiment [3]; > 25 µM in experiment [4] (Mus musculus, 120 h). In addition, the “inhibition of calcium flux” value in the experiment with Human mononuclear cells was “inhibited calcium flux in a dose dependent manner”. The “Decrease in MAP” value in experiment [5] is 20 mm Hg.
In the case of `COc1ccc(C(C#N)(CCCN(C)CCc2cc(OC)c(OC)cc2C)C(C)C)cc1OC` (stereo not drawn) [Example 6, α-[3-[[2-(4,5-dimethoxy-2-methylphenyl)ethyl]methylamino]propyl]-3,4-dimethoxy-α-(1-methylethyl)benzeneacetonitrile, 2,3-dihydroxybutanedioic acid salt], the “vascular resistance in the brain” value in the experiment with adult male SHR is reported as 149 mm Hg min. g/ml.
For `COc1ccc(C(C#N)(CCCN(C)CCc2cc(OC)c(OC)cc2/C=C/C(C)=O)C(C)C)cc1OC` (stereo not drawn) [Example 7, α-[3-[[2-[4.5-dimethoxy-2-(3-oxo-1E-butenyl)phenyl]ethyl]methylamino]-propyl]-3,4-dimethoxy-α-(1-methylethyl)benzeneacetonitrile], the IC50 was found to be 15.5 µM in experiment [3] and 7.9 µM in experiment [4] (Mus musculus, 120 h).

Values taken from patent publication US6451852B2, “Phenylacetonitrilealkylaminoalkyl-ortho-substituted aryl compounds as immunosuppressives” (G. D. Searle & Co., priority 1989, dated 2002).
